Results taken from patent US20180171280A1, “CELL CULTURE EXPOSURE SYSTEM (CCES)” (priority 2016, published 2018).

Experiments:
[1] = system: Human primary lung cells; test: CellTiter-Glo Luminescent Cell Viability Assay after ALI exposure in the CCES, human primary lung cells; format: cell-based; settings: 2 h ALI exposure, 4 h post-exposure, Inc. Ct. = 100; for CellTiter-Glow viability, Average: average of 3 experiments
Description: (§1) The Cell Culture Exposure System (CCES) provides the ability to expose cultured mammalian cells to airborne chemicals at ALI conditions in a 24-well format.
Human primary lung cells were collected by cytology brush biopsy during bronchoscopy at EPA clinical facility in Chapel Hill. Cells were cultured by standard procedures and were provided to EPA/RTP.
Cells were cultured and plated onto Transwell membranes and grown out for 28 days as described in OP.
(§2) Cells were placed into new 24-well plates with fresh growth media and put at ALI 2 h prior to exposure. […] Control cells were exposed simultaneously to clean air for 2 h in a separate chamber. Another set of control cells were kept at ALI in an incubator (37° C., 5% CO2) for 2 h. After the exposure, cells were placed in an incubator (37° C., 5% CO2) for 4 h. A total of three exposures were conducted for each cell type.
(§3) The CellTiter-Glo® Luminescent Cell Viability Assay (Promega) determines the number of viable cells based on quantification of the ATP present; an indicator of metabolically active cells. […] Two inserts per exposure condition were measured for each run.

[2] = system: BEAS-2B cells; test: CellTiter-Glo Luminescent Cell Viability Assay after ALI exposure in the CCES, BEAS-2B cells; format: cell-based, human; settings: 2 h ALI exposure, 4 h post-exposure, Inc. Ct. = 100; for CellTiter-Glow viability, Average: average of 3 experiments
Description: as §1
The BEAS-2B cell line, obtained from ATTC, is an immortalized human bronchial epithelial lung cell.
Cells were grown out on T75 cm^2 flasks in complete Keratinocyte Growth Media (KGM) (KGM-Gold Bullet Kit, Lonza®). Cells were passaged and seeded onto 6.5 mm (24-well format) permeable (0.4-μm pore size) Transwell polyester membranes at passages 55 and 56. Prior to seeding, Transwells were coated with PureCol® bovine collagen (Advanced Biometrix) at a density of 10 μg/cm^2. Cells were seeded at 3.0×10^4 cells per Transwell membranes 48 h prior to exposure and at 1.5×10^4 per Transwell membrane 72 h prior to exposure to obtain a confluent monolayer. Cells were seeded on 4 inserts per exposure condition for each run.
as §2, §3

In the case of `C=CC=C` [1,3-Butadiene, 1,3-butadiene], the “CellTiter-Glow viability, May 3, 2017” value ([1]; 0.16 ppm) is reported as 110.9, the “CellTiter-Glow viability, May 4, 2017” value ([1]; 0.16 ppm) is reported as 99.9 and the “CellTiter-Glow viability, May 5, 2017” value ([1]; 0.16 ppm) is reported as 90.1. The “CellTiter-Glow viability, Average” value ([1]; 0.16 ppm) was 100.3, the “CellTiter-Glow viability, May 3, 2017” value ([1]; 0.5 ppm) was 118.5 and the “CellTiter-Glow viability, May 4, 2017” value ([1]; 0.5 ppm) was 86.3. For the same compound, the “CellTiter-Glow viability, May 5, 2017” value ([1]; 0.5 ppm) was 94.2, the “CellTiter-Glow viability, Average” value ([1]; 0.5 ppm) was 99.6 and the “CellTiter-Glow viability, May 3, 2017” value ([1]; 1.7 ppm) was 120.3. For the same compound, the “CellTiter-Glow viability, May 4, 2017” value ([1]; 1.7 ppm) was 91.8, the “CellTiter-Glow viability, May 5, 2017” value ([1]; 1.7 ppm) was 101.4 and the “CellTiter-Glow viability, Average” value ([1]; 1.7 ppm) was 104.5. For the same compound, the “CellTiter-Glow viability, May 3, 2017” value ([1]; 5 ppm) was 122.0, the “CellTiter-Glow viability, May 4, 2017” value ([1]; 5 ppm) was 112.0 and the “CellTiter-Glow viability, May 5, 2017” value ([1]; 5 ppm) was 98.6. The “CellTiter-Glow viability, Average” value ([1]; 5 ppm) was 110.8, the “CellTiter-Glow viability, May 3, 2017” value ([1]; 16 ppm) was 128.1 and the “CellTiter-Glow viability, May 4, 2017” value ([1]; 16 ppm) was 101.3. The “CellTiter-Glow viability, May 5, 2017” value ([1]; 16 ppm) was 98.9, the “CellTiter-Glow viability, Average” value ([1]; 16 ppm) was 109.4 and the “CellTiter-Glow viability, May 3, 2017” value ([1]; 50 ppm) was 104.7. For the same compound, the “CellTiter-Glow viability, May 4, 2017” value ([1]; 50 ppm) was 92.7, the “CellTiter-Glow viability, May 5, 2017” value ([1]; 50 ppm) was 95.4 and the “CellTiter-Glow viability, Average” value ([1]; 50 ppm) was 97.6. For the same compound, the “CellTiter-Glow Viability, May 10, 2017” value ([2]; 0.16 ppm) was 96.27, the “CellTiter-Glow Viability, May 11, 2017” value ([2]; 0.16 ppm) was 87.14 and the “CellTiter-Glow Viability, May 12, 2017” value ([2]; 0.16 ppm) was 96.95. For the same compound, the “CellTiter-Glow viability, Average” value ([2]; 0.16 ppm) was 93.45, the “CellTiter-Glow Viability, May 10, 2017” value ([2]; 0.5 ppm) was 101.8 and the “CellTiter-Glow Viability, May 11, 2017” value ([2]; 0.5 ppm) was 89.3. For the same compound, the “CellTiter-Glow Viability, May 12, 2017” value ([2]; 0.5 ppm) was 96.1, the “CellTiter-Glow viability, Average” value ([2]; 0.5 ppm) was 95.73 and the “CellTiter-Glow Viability, May 10, 2017” value ([2]; 1.7 ppm) was 94.35. The “CellTiter-Glow Viability, May 11, 2017” value ([2]; 1.7 ppm) was 94.49, the “CellTiter-Glow Viability, May 12, 2017” value ([2]; 1.7 ppm) was 95.83 and the “CellTiter-Glow viability, Average” value ([2]; 1.7 ppm) was 94.89. The “CellTiter-Glow Viability, May 10, 2017” value ([2]; 5 ppm) was 105.3, the “CellTiter-Glow Viability, May 11, 2017” value ([2]; 5 ppm) was 81.9 and the “CellTiter-Glow Viability, May 12, 2017” value ([2]; 5 ppm) was 96.8. The “CellTiter-Glow viability, Average” value ([2]; 5 ppm) was 94.66, the “CellTiter-Glow Viability, May 10, 2017” value ([2]; 16 ppm) was 101.5 and the “CellTiter-Glow Viability, May 11, 2017” value ([2]; 16 ppm) was 87.31. For the same compound, the “CellTiter-Glow Viability, May 12, 2017” value ([2]; 16 ppm) was 79.14, the “CellTiter-Glow viability, Average” value ([2]; 16 ppm) was 89.33 and the “CellTiter-Glow Viability, May 10, 2017” value ([2]; 50 ppm) was 105.1. The “CellTiter-Glow Viability, May 11, 2017” value ([2]; 50 ppm) was 71.1, the “CellTiter-Glow Viability, May 12, 2017” value ([2]; 50 ppm) was 9.72 and the “CellTiter-Glow viability, Average” value ([2]; 50 ppm) was 61.99.
